Assay results: patent US7759349B2, “Control of parasites in animals by the use of imidazo[1,2-b]pyridazine derivatives” (Schering-Plough Animal Health Corporation, priority 2003, dated 2010)

System: Haemonchus contortus
Test: Haemonchus contortus larvacidal assay: NemaTOX H. contortus dose response (larval development, eggs to L3)
Type: cell-based
Details: concentration required to inhibit development in 99% of the nematode larvae, eggs on agar to L3 stage (6 days), two-fold dilutions, 0.024 to 50 μg/ml; for IC99: Haemonchus contortus, 144 h, read-out: LD99
Procedure: Haemonchus Contortus Larvacidal Assay: NemaTOX H.contortus Dose Response (00/0510)
Effect on larval development is determined in the assay described by Gill et al. (International Journal of Parasitology, 1995, 25, 463-470). Briefly, in this assay nematode eggs were applied to the surface of an agar matrix containing the test compound and then allowed to develop through to the L3, infective stage (6 days)
The wells for each dilution of every compound (from highest to lowest concentration) were inspected to determine the well number corresponding to the lowest concentration at which development was inhibited in 99% of the nematode larvae present. As the well numbers correspond to a two-fold serial dilution of each compound, a titre (dilution factor) is generated as 2^n-1, where n is the well number. By dividing the highest concentration tested by the titre an LD99 value can be obtained, representing the concentration required to inhibit development in 99% of the nematode larvae present.
The compounds supplied as solid and viscous liquids were dissolved in DMSO. Twelve serial 1/2 dilutions in DMSO solution were prepared from the stock solution, each of which was then diluted 1/5 with water. Aliquots (10 μl) of each dilution were transferred to the bioassay plates to give a final concentration range of 0.024 to 50 μg/ml.
In Tables 1, 2 and 3 the Haemonchus contortus LD99 values for compounds in accordance with the present invention are listed, measured in micrograms/mL.

Molecule COc1ccc2nc(-c3ccc(C)cc3)cn2n1 [Compound 1] has an LD99 (Table 1) of 3.75 micrograms/mL.

Work on CCOc1ccc2nc(-c3ccc(C)cc3)cn2n1 [Compound 2] yielded an LD99 (Table 1) of 0.875 micrograms/mL.

Work on COc1c(-c2ccccc2)nc2ccc(SC)nn12 [Compound 3] yielded an LD99 (Table 1) of 3 micrograms/mL.

In the case of CSc1ccc2nc(-c3ccccc3)cn2n1 [Compound 4], the LD99 (Table 1) is reported as 2.75 micrograms/mL.

c1ccc(Sc2ccc3nc(-c4ccccc4)cn3n2)cc1 [Compound 5] showed an LD99 (Table 1) of 1.625 micrograms/mL.

CSc1ccc2nc(-c3ccc4c(c3)OCO4)cn2n1 [Compound 6] gave an LD99 (Table 1) of 3.25 micrograms/mL.

CCCSc1ccc2nc(-c3ccc(C)cc3)cn2n1 [Compound 7] showed an LD99 (Table 1) of 0.938 micrograms/mL.

In the case of CCCSc1ccc2nc(-c3ccc4c(c3)OCO4)cn2n1 [Compound 8], the LD99 (Table 1) is reported as 0.813 micrograms/mL.

COc1c(-c2ccc3cc(C)ccc3c2)nc2ccc(SC)nn12 [Compound 9] was tested, and the LD99 (Table 1) was >15.0 micrograms/mL.

Molecule c1ccc(COc2ccc3nc(-c4ccccc4)cn3n2)cc1 [Compound 10] has an LD99 (Table 1) of 5.5 micrograms/mL.

With CCCOc1ccc2nc(-c3ccc(Cl)cc3)cn2n1 [Compound 11] the LD99 (Table 1) was 3.75 micrograms/mL.

In the case of CCSc1ccc2nc(-c3ccc(C)cc3)cn2n1 [Compound 12], the LD99 (Table 1) is reported as 1.25 micrograms/mL.

With CCCSc1ccc2nc(-c3cccc(OC)c3)cn2n1 [Compound 13] the LD99 (Table 1) was 0.63 micrograms/mL.

CCCSc1ccc2nc(-c3cc(OC)c(OC)c(OC)c3)cn2n1 [Compound 14] was tested, and the LD99 (Table 1) was >15.0 micrograms/mL.

For COc1cccc(-c2nc3ccc(SC)nn3c2OC)c1 [Compound 15], the LD99 (Table 1) was 2.75 micrograms/mL.

CCCOc1ccc2nc(-c3ccc4c(c3)OCO4)cn2n1 [Compound 16] showed an LD99 (Table 1) of 0.23 micrograms/mL.

In the case of COc1ccc(-c2nc3ccc(OCc4ccccc4)nn3c2OC)cc1 [Compound 17], the LD99 (Table 1) is reported as >15.0 micrograms/mL.

COc1ccc(-c2cn3nc(OC)ccc3n2)cc1 [Compound 18] was tested, and the LD99 (Table 1) was 3 micrograms/mL.

With COc1cccc(Sc2ccc3nc(-c4ccc5c(c4)OCO5)cn3n2)c1 [Compound 19] the LD99 (Table 1) was >15.0 micrograms/mL.

CSCc1c(-c2ccc(Cl)cc2)nc2ccc(SC)nn12 [Compound 20] was tested, and the LD99 (Table 1) was >15.0 micrograms/mL.

With COc1c(-c2ccccc2)nc2ccc(Sc3ccccc3)nn12 [Compound 21] the LD99 (Table 1) was >15.0 micrograms/mL.

CCCSc1ccc2nc(-c3ccccc3)c(OC)n2n1 [Compound 22] was tested, and the LD99 (Table 1) was >15.0 micrograms/mL.

In the case of COc1c(-c2ccccc2)nc2ccc(OCc3ccccc3)nn12 [Compound 23], the LD99 (Table 1) is reported as >15.0 micrograms/mL.

CCSc1ccc2nc(-c3ccccc3)c(OC)n2n1 [Compound 24] gave an LD99 (Table 1) of 7.5 micrograms/mL.

COCCOc1ccc2nc(-c3ccc4c(c3)OCO4)cn2n1 [Compound 25] showed an LD99 (Table 1) of 1.25 micrograms/mL.

In the case of CCCOc1ccc2nc(-c3ccc(OC)c(OC)c3)cn2n1 [Compound 26], the LD99 (Table 1) is reported as 1.3 micrograms/mL.

With CCCOc1ccc2nc(-c3ccc(OCC)cc3)cn2n1 [Compound 27] the LD99 (Table 1) was 0.1 micrograms/mL.

CCCOc1ccc2nc(-c3cccc(OC)c3)cn2n1 [Compound 28] was tested, and the LD99 (Table 1) was 0.23 micrograms/mL.

Molecule CCCSc1ccc2nc(-c3ccc(OC)c(OC)c3)cn2n1 [Compound 29] has an LD99 (Table 1) of 1.9 micrograms/mL.

With CCCSc1ccc2nc(-c3ccc(OCC)cc3)cn2n1 [Compound 30] the LD99 (Table 1) was 0.38 micrograms/mL.

Work on CCOc1ccc(-c2cn3nc(OC4CCCC4)ccc3n2)cc1 [Compound 31] yielded an LD99 (Table 1) of 0.875 micrograms/mL.

CCCOc1nn2cc(-c3ccc(OCC)cc3)nc2cc1C [Compound 32] gave an LD99 (Table 1) of 0.188 micrograms/mL.

Molecule CCCOc1ccc2nc(-c3ccc(Cl)s3)cn2n1 [Compound 34] has an LD99 (Table 1) of 0.188 micrograms/mL.

CCOc1ccc(-c2cn3nc(-c4ccccc4)ccc3n2)cc1 [Compound 35] was tested, and the LD99 (Table 1) was 10 micrograms/mL.

Work on COc1ccc(-c2nc3ccc(-c4ccccc4)nn3c2C)cc1 [Compound 36] yielded an LD99 (Table 1) of 0.8123 micrograms/mL.

CCCOc1ccc2nc(-c3ccc(OC)cc3)c(C)n2n1 [Compound 37] gave an LD99 (Table 1) of 0.344 micrograms/mL.

With CCCOc1ccc2nc(-c3ccc(OC)c(Br)c3)c(C)n2n1 [Compound 38] the LD99 (Table 1) was 3.75 micrograms/mL.

CCOc1ccc(-c2nc3ccc(OCC4CC4)nn3c2Br)cc1 [Compound 39] showed an LD99 (Table 1) of 2.75 micrograms/mL.

In the case of CCCOc1ccc2nc(-c3ccc(OCC)cc3)c(Br)n2n1 [Compound 40], the LD99 (Table 1) is reported as 0.344 micrograms/mL.

CCOc1ccc(-c2cn3nc(SCc4ccc(OC)cc4)ccc3n2)cc1 [Compound 41] was tested, and the LD99 (Table 1) was 11 micrograms/mL.

Work on CCOc1ccc(-c2cn3nc(SCc4ccc(Cl)cc4)ccc3n2)cc1 [Compound 42] yielded an LD99 (Table 1) of 3 micrograms/mL.

Work on c1cc2c(cc1-c1cn3nc(OCC4CC4)ccc3n1)OCO2 [Compound 43, 2-(3,4-Methylendioxyphenyl)-6-cyclopropylmethoxyimidazo[1,2-b]pyridazine] yielded an IC99 (Table 1) of 0.117 µg/mL.

With Cc1c(-c2cccs2)nc2ccc(OCC3CC3)nn12 [Compound 44] the IC99 (Table 1) was 0.375 µg/mL.

Cc1c(-c2cccs2)nc2ccc(Br)nn12 [Compound 45] was tested, and the LD99 (Table 1) was 6 micrograms/mL.

Molecule CCCCCCSc1ccc2nc(-c3cccs3)c(C)n2n1 [Compound 46] has an LD99 (Table 1) of 6.5 micrograms/mL.

Molecule COc1ccc(CSc2ccc3nc(-c4cccs4)c(C)n3n2)cc1 [Compound 47] has an LD99 (Table 1) of 7.5 micrograms/mL.

Molecule CCCSc1ccc2nc(-c3ccc(OCC)cc3)c(Cl)n2n1 [Compound 48] has an LD99 (Table 1) of 6 micrograms/mL.

With CCOc1ccc(-c2cn3nc(SCC(C)C)ccc3n2)cc1 [Compound 49] the LD99 (Table 1) was 1.75 micrograms/mL.

With CCOc1ccc(-c2cn3nc(SC(C)C)ccc3n2)cc1 [Compound 50] the LD99 (Table 1) was 0.875 micrograms/mL.

CCOc1ccc(-c2cn3nc(OC(C)C)ccc3n2)cc1 [Compound 51] was tested, and the LD99 (Table 1) was 1.875 micrograms/mL.

COc1ccc(-c2cn3nc(SC(C)C)ccc3n2)cc1 [Compound 52] was tested, and the LD99 (Table 1) was 0.938 micrograms/mL.

Molecule CCCCOc1ccc2nc(-c3ccc(OCCC)cc3)cn2n1 [Compound 53] has an LD99 (Table 1) of 0.344 micrograms/mL.

Molecule CCCOc1ccc2nc(-c3ccc(F)cc3F)cn2n1 [Compound 54] has an LD99 (Table 1) of 0.219 micrograms/mL.

Molecule CCCOc1ccc2nc(-c3ccc(F)cc3)cn2n1 [Compound 55] has an LD99 (Table 1) of 0.813 micrograms/mL.

Molecule CCc1ccc(-c2cn3nc(OCC4CC4)ccc3n2)cc1 [Compound 56] has an LD99 (Table 1) of 0.0781 micrograms/mL.

COc1ccc(-c2cn3nc(SCC(C)C)ccc3n2)cc1OC [Compound 57] gave an LD99 (Table 1) of 1.375 micrograms/mL.

COc1ccc(-c2cn3nc(OC(C)C)ccc3n2)cc1OC [Compound 58] was tested, and the LD99 (Table 1) was 15 micrograms/mL.

Work on CCCCOc1ccc2nc(-c3ccc(OCCC)cc3)c(CN(C)C)n2n1 [Compound 59] yielded an LD99 (Table 1) of 14 micrograms/mL.

With CCOc1ccc(-c2cn3nc(OCC)ccc3n2)cc1 [Compound 60] the LD99 (Table 1) was 0.172 micrograms/mL.

CCCOc1ccc2nc(-c3ccc4c(c3)OCCO4)cn2n1 [Compound 61] showed an LD99 (Table 1) of 0.813 micrograms/mL.

CCCOc1nn2cc(-c3ccc(OCC)cc3)nc2c2ccccc12 [Compound 62] gave an LD99 (Table 1) of 0.625 micrograms/mL.

Molecule COCCOc1ccc(-c2cn3nc(OCCOC)ccc3n2)cc1 [Compound 64] has an LD99 (Table 2) of 6 micrograms/mL.

CCCOc1ccc2nc(-c3ccc(OCCOC)c(OC)c3)cn2n1 [Compound 66] gave an LD99 (Table 2) of 0.81 micrograms/mL.

With COCCOc1ccc(-c2cn3nc(N4CCCCC4)ccc3n2)cc1 [Compound 67] the LD99 (Table 2) was 1.5 micrograms/mL.

For CCCSc1ccc2nc(-c3ccc(OCCOC)c(OC)c3)cn2n1 [Compound 68], the LD99 (Table 2) was 0.44 micrograms/mL.

COCCOc1ccc(-c2cn3ncccc3n2)cc1 [Compound 69] was tested, and the LD99 (Table 2) was 15 micrograms/mL.

Work on COCCOc1ccc(-c2cn3nc(N4CCCC4)ccc3n2)cc1 [Compound 70] yielded an LD99 (Table 2) of 3.25 micrograms/mL.

CCCNc1ccc2nc(-c3ccc(OCCOC)cc3)cn2n1 [Compound 71] showed an LD99 (Table 2) of 0.688 micrograms/mL.

In the case of COCCOc1ccc(-c2cn3nc(OC4CCCC4)ccc3n2)cc1 [Compound 73], the LD99 (Table 2) is reported as 1.875 micrograms/mL.

With OCCOc1ccc(-c2cn3nc(OC4CCCC4)ccc3n2)cc1 [Compound 74] the LD99 (Table 2) was 7 micrograms/mL.

CCCOc1ccc2nc(-c3ccc(OCCOC)cc3)c(Br)n2n1 [Compound 81] was tested, and the LD99 (Table 2) was 0.0137 micrograms/mL.

Work on CCCOc1ccc2nc(-c3ccc(OCCOC)c(Br)c3)c(C)n2n1 [Compound 83] yielded an LD99 (Table 2) of 0.375 micrograms/mL.

With CCCOc1ccc2nc(-c3ccc(OCCOC)cc3)c(C)n2n1 [Compound 84] the LD99 (Table 2) was 0.109 micrograms/mL.

With COCCOc1ccc(-c2nc3ccc(-c4ccccc4)nn3c2C)cc1 [Compound 85] the LD99 (Table 2) was 1.88 micrograms/mL.

In the case of COCCOc1ccc(-c2nc3ccc(Cl)nn3c2C)cc1Br [Compound 86], the LD99 (Table 2) is reported as 3 micrograms/mL.

Work on COCCOc1ccc(-c2nc3ccc(Cl)nn3c2C)cc1 [Compound 87] yielded an LD99 (Table 2) of 0.156 micrograms/mL.

Molecule CCCSc1ccc2nc(-c3ccc(OCCOC)c(OC)c3)c(Br)n2n1 [Compound 89] has an LD99 (Table 2) of 0.75 micrograms/mL.

COCCOc1ccc(-c2cn3nc(Br)ccc3n2)cc1 [Compound 90] gave an LD99 (Table 2) of 3 micrograms/mL.
